PubChem BioAssay (NCI)
Where “and” joins values, the source holds several entries; their conditions need not be identical. Identical values can stand only once.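 Cells were grown in 96-well plates and exposed to each compound for 48 hours at five concentrations; endpoints were interpolated linearly between bracketing concentrations, or set to the highest concentration if not reached. GI50 is the concentration that inhibits growth by half. TGI is the concentration that stops growth completely.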

What was measured:
Assay in all cases: NCI-60 cell line screen, 48 h
[1] = tested on: HOP-92 NSCLC
[2] = tested on: UO-31 renal
[3] = tested on: NCI-H23 lung
[4] = tested on: SR leukemia
[5] = tested on: HT29 colon
[6] = tested on: U251 CNS
[7] = tested on: SF-295 CNS
[8] = tested on: MOLT-4 leukemia
[9] = tested on: PC-3 prostate
[10] = tested on: RXF 393 renal
[11] = tested on: CCRF-CEM leukemia
[12] = tested on: SF-539 CNS
[13] = tested on: IGROV1 ovarian
[14] = tested on: TK-10 renal
[15] = tested on: SW-620 colon
[16] = tested on: SK-MEL-2 melanoma
[17] = tested on: SF-268 CNS
[18] = tested on: UACC-62 melanoma
[19] = tested on: NCI-H460 lung
[20] = tested on: OVCAR-3 ovarian
[21] = tested on: A498 renal
[22] = tested on: 786-0 renal
[23] = tested on: MALME-3M melanoma
[24] = tested on: NCI/ADR-RES ovarian
[25] = tested on: SNB-19 CNS
[26] = tested on: SK-MEL-5 melanoma
[27] = tested on: ACHN renal
[28] = tested on: DU-145 prostate
[29] = tested on: HCT-15 colon
[30] = tested on: OVCAR-5 ovarian
[31] = tested on: COLO 205 colon
[32] = tested on: HCC-2998 colon
[33] = tested on: HOP-62 NSCLC
[34] = tested on: NCI-H226 lung
[35] = tested on: RPMI-8226 leukemia
[36] = tested on: NCI-H522 lung
[37] = tested on: HS 578T breast
[38] = tested on: A549 NSCLC
[39] = tested on: SNB-75 CNS
[40] = tested on: KM12 colon
[41] = tested on: MCF7 breast
[42] = tested on: MDA-N
[43] = tested on: OVCAR-4 ovarian
[44] = tested on: EKVX NSCLC
[45] = tested on: MDA-MB-231 breast
[46] = tested on: K-562 leukemia
[47] = tested on: SK-OV-3 ovarian
[48] = tested on: T-47D breast
[49] = tested on: BT-549 breast
[50] = tested on: LOX IMVI melanoma
[51] = tested on: OVCAR-8 ovarian
[52] = tested on: SK-MEL-28 melanoma
[53] = tested on: HCT-116 colon
[54] = tested on: HL-60(TB) leukemia
[55] = tested on: SN12C renal
[56] = tested on: M14 melanoma
[57] = tested on: UACC-257 melanoma
[58] = tested on: MDA-MB-435
[59] = tested on: CAKI-1 renal

In the case of `CC1OC(OC2C(OC(=O)[C@]34CCC(C)(C)C[C@H]3C3=CC[C@@H]5[C@@]6(C)CC[C@H](OC7OC(CO)C(O)C(O)C7OC7OC(CO)C(O)C(O)C7O)C(C)(C)[C@@H]6CC[C@@]5(C)[C@]3(C)CC4)OCC(O)C2O)C(O)C(O)C1OC1OCC(O)C(OC2OCC(O)C(O)C2O)C1O` (stereo partly drawn), the TGI [1] is reported as 5.81 µM and 4.97 µM, the TGI [2] is reported as 4.14 µM and 3.85 µM and the TGI [3] is reported as 8.52 µM and 6.54 µM. The TGI [4] was 8.14 µM and 8.97 µM, the TGI [5] was 10.8 µM and 9.01 µM and the TGI [6] was 22.9 µM and 19.7 µM. The TGI [7] was 13.1 µM and 10.7 µM, the GI50 [8] was 2.87 µM and 9.41 µM and the TGI [8] was 22.4 µM and 26.6 µM. The TGI [9] was 17.8 µM and 19.1 µM, the TGI [10] was 20.5 µM and 24.7 µM and the TGI [11] was 30 µM and 31.6 µM. The TGI [12] was 42.7 µM and > 100 µM, the TGI [13] was 26.4 µM and 24.3 µM and the TGI [14] was 21.1 µM and 21.8 µM. For the same molecule, the TGI [15] was 25.3 µM and 23.6 µM, the TGI [16] was 8.07 µM and 8.23 µM and the TGI [17] was 38.7 µM and 20.5 µM. For the same molecule, the TGI [18] was 6.58 µM and 4.71 µM, the TGI [19] was 31.9 µM and 40.5 µM and the TGI [20] was 22.3 µM and 34.6 µM. For the same molecule, the TGI [21] was 4.44 µM and 3.95 µM, the TGI [22] was 18.9 µM and 19.7 µM and the TGI [23] was 6.6 µM and 7.27 µM. The TGI [24] was 18.1 µM and 16.2 µM, the TGI [25] was 20.8 µM and 20.5 µM and the TGI [26] was 8.11 µM and 10.3 µM. For the same molecule, the TGI [27] was 15.4 µM and 18.3 µM, the TGI [28] was 19.2 µM and 20.8 µM and the TGI [29] was 27 µM and 26.8 µM. The TGI [30] was 16.7 µM and 16 µM, the TGI [31] was 3.42 µM and 6.5 µM and the TGI [32] was 3.75 µM and 3.4 µM. For the same molecule, the GI50 [33] was 9.23 µM and 3.83 µM, the TGI [33] was 23.3 µM and 11.2 µM and the TGI [34] was 13.9 µM and 12.4 µM. For the same molecule, the TGI [35] was 16.1 µM and 17.4 µM, the TGI [36] was 7.68 µM and 6.53 µM and the TGI [37] was 30.3 µM and 29.3 µM. The TGI [38] was 10.2 µM and 9.72 µM, the TGI [39] was 17 µM and 20.8 µM and the TGI [40] was 11.8 µM and 12.5 µM. The GI50 [41] was 3760 nM and 1870 nM, the TGI [41] was 11 µM and 7.69 µM and the TGI [42] was 3.58 µM and 3.09 µM. For the same molecule, the TGI [43] was 19.2 µM and 21.6 µM, the TGI [44] was 8.6 µM and 7.32 µM and the TGI [45] was 8.71 µM and 9.09 µM. For the same molecule, the TGI [46] was 18.8 µM and 17.6 µM, the TGI [47] was 25.6 µM and 26.5 µM and the TGI [48] was 21.8 µM and 16.6 µM. For the same molecule, the TGI [49] was 10.8 µM, the TGI [50] was 24 µM and 23.6 µM and the TGI [51] was 26.9 µM and 21.7 µM. For the same molecule, the TGI [52] was 3.9 µM and 3.82 µM, the TGI [53] was 16.7 µM and 14 µM and the GI50 [54] was 1000 nM and 2720 nM. For the same molecule, the TGI [54] was 4.15 µM and 7.43 µM, the TGI [55] was 4.82 µM and 4.43 µM and the TGI [56] was 3.98 µM and 3.49 µM. For the same molecule, the TGI [57] was 6.02 µM and 5.36 µM, the TGI [58] was 3.59 µM and 3.22 µM and the TGI [59] was 15.8 µM and 15.3 µM.
